Laboratory results: ChEMBL document CHEMBL5523724, “Rational Molecular Editing: A New Paradigm in Drug Discovery” (J Med Chem, 2024)

What was measured:
[1] = target: T1, 3-hydroxy-3-methylglutaryl-coenzyme A reductase (Homo sapiens, UniProt P04035); test: Inhibition of HMG-CoA Reductase (unknown origin)
T1 sequence (P04035 whole entry): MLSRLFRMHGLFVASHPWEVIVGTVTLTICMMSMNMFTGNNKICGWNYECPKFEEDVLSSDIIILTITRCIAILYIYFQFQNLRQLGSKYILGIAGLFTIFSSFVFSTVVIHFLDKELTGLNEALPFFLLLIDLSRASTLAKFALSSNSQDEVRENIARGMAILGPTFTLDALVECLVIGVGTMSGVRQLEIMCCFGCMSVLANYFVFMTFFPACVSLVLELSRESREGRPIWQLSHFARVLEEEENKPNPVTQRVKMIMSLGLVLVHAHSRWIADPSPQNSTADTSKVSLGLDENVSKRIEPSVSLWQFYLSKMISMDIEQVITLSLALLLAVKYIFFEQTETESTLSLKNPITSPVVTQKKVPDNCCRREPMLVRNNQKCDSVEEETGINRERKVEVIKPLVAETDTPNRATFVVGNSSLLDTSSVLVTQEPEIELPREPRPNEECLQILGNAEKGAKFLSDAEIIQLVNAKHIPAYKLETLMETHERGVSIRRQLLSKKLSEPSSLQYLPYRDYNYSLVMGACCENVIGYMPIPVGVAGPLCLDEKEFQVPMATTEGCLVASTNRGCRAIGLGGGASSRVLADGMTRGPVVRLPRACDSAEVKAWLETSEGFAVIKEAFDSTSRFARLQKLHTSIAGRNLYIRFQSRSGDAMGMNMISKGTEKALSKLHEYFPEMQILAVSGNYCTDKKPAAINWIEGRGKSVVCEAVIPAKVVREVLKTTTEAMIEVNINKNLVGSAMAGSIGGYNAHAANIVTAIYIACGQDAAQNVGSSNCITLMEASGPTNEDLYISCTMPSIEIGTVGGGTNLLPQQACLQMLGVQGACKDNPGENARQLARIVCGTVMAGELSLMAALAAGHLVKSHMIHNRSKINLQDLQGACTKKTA

Ramos = test: Antitumor activity against human Ramos cells; assay type: functional, cell-based

| Compound | IC50 [1] [nM] | IC50 (Ramos) [µM] |
| --- | --- | --- |
| CC(C)c1ccc(-c2ccc(F)cc2)n1CC[C@@H]1C[C@@H](O)CC(=O)O1 | 230 | – |
| Cc1cccc(P(=O)(CNCc2ccccc2)c2cccc(C)c2)c1 | – | 38 |
| CC(C)c1c(C(=O)Nc2ccccc2)c(-c2ccccc2)c(-c2ccc(F)cc2)n1CC[C@@H]1C[C@@H](O)CC(=O)O1 [ATORVASTATIN LACTONE] | 7 | – |
| [2H]C([2H])(NCc1ccccc1)P(=O)(c1cccc(C)c1)c1cccc(C)c1 | – | 4.2 |
